Common to all, as to assay type: in vivo
The test system of assay [1] is Puccinia recondita f. sp. tritici. Kind of assay: Test B: wheat leaf rust control on wheat seedlings. To be noted: wheat seedlings, 100 = 100% disease control, 0 = no control; for pest or weed control at 250 ppm: Puccinia recondita, read-out: Test B disease control rating.
The test system of assay [2] is Phytophthora infestans. Kind of assay: whole plant or invertebrate. To be noted: tomato seedlings, 100 = 100% disease control, 0 = no control; for pest or weed control at 250 ppm: Phytophthora infestans, in Solanum lycopersicum, read-out: Test F disease control rating, 250 ppm.
In assay [3] the test system is Zymoseptoria tritici. Description: Test C: wheat leaf blotch control on wheat seedlings. To be noted: wheat seedlings, 100 = 100% disease control, 0 = no control; for pest or weed control at 250 ppm: Zymoseptoria tritici, read-out: Test C disease control rating.
Assay [4] has as its system Plasmopara viticola. Kind of assay: Test D: grape downy mildew control on grape seedlings. The note with it: 100 = 100% disease control, 0 = no control; for pest or weed control at 250 ppm: Plasmopara viticola, read-out: Test D disease control rating.
For assay [5], the system named is Botrytis cinerea. Kind of assay: Test E: tomato Botrytis control on tomato seedlings. To be noted: 100 = 100% disease control, 0 = no control; for pest or weed control at 250 ppm: Botrytis cinerea, read-out: Test E disease control rating.
Assay [6] deals with Erysiphe graminis f. sp. tritici. Kind of assay: Test G: wheat powdery mildew control on wheat seedlings. To be noted: 100 = 100% disease control, 0 = no control; for pest or weed control at 250 ppm: Blumeria graminis, read-out: Test G disease control rating.
Assay [7] deals with Phakopsora pachyrhizi. Description: Test A: Asian soybean rust control on soybean seedlings. The note with it: soybean seedlings, 100 = 100% disease control, 0 = no control; for pest or weed control at 250 ppm: Phakopsora pachyrhizi, read-out: Test A disease control rating.

As to `COc1ccnc(C(=O)NC(C)C(=O)OC(C)c2ccccc2-n2ccc(C(F)(F)F)n2)c1OC(C)=O` (mixture of isomers) [Compound 25], the “Test B disease control rating” value in assay [1] (250 ppm) stood at 0%. The “Test F disease control rating” value in assay [2] (250 ppm) worked out at 0%. The “Test C disease control rating” value in assay [3] (250 ppm) was found to be 17%. Also, in assay [4] (250 ppm), the “Test D disease control rating” value came to 41%. In addition, the “Test E disease control rating” value in assay [5] (250 ppm) is given as 0%. Besides, the “Test G disease control rating” value in assay [6] (250 ppm) is 0%. In assay [7] (250 ppm), the “Test A disease control rating” value was determined as 97%.

On to `COc1ccnc(C(=O)N[C@@H](C)C(=O)OC(C)c2ccc(C(C)(C)C)cc2)c1OC(C)=O` (stereo partly shown) [Compound 121], for which, in assay [1] (250 ppm), the “Test B disease control rating” value is recorded as 100%. For the same compound, in assay [2] (250 ppm), the “Test F disease control rating” value is 0%. For the same compound, the “Test C disease control rating” value in assay [3] (250 ppm) is 99%. The “Test D disease control rating” value in assay [4] (250 ppm) amounted to 50%. In assay [5] (250 ppm), the “Test E disease control rating” value is reported as 9%. Further, the “Test G disease control rating” value in assay [6] (250 ppm) is listed as 0%. The “Test A disease control rating” value in assay [7] (250 ppm) was 100%.

As to `COc1ccnc(C(=O)N[C@@H](C)C(=O)OC(C)c2cccc(OC3CCC(C)(C)CC3)c2)c1OC(C)=O` (stereo partly shown) [Compound 137], the “Test B disease control rating” value in assay [1] (250 ppm) stood at 100%. The “Test F disease control rating” value in assay [2] (250 ppm) worked out at 0%. The “Test C disease control rating” value in assay [3] (250 ppm) is 92%. In assay [4] (250 ppm), the “Test D disease control rating” value turned out to be 11%. For the same compound, the “Test E disease control rating” value in assay [5] (250 ppm) is on record as 0%. For the same compound, the “Test G disease control rating” value in assay [6] (250 ppm) came out at 43%. The “Test A disease control rating” value in assay [7] (250 ppm) came out at 100%.

Take `COc1ccnc(C(=O)NC(C)C(=O)OC(C)C23CC4CC(CC(C4)C2)C3)c1OC(C)=O` (mixture of isomers) [Compound 43]: in assay [1] (250 ppm), the “Test B disease control rating” value came out at 100%. In assay [2] (250 ppm), the “Test F disease control rating” value turned out to be 0%. In assay [3] (250 ppm), the “Test C disease control rating” value was determined as 90%. In addition, the “Test D disease control rating” value in assay [4] (250 ppm) is given as 71%. Further, in assay [5] (250 ppm), the “Test E disease control rating” value turned out to be 0%. In assay [6] (250 ppm), the “Test G disease control rating” value is 0%. Besides, the “Test A disease control rating” value in assay [7] (250 ppm) came out at 100%.

With `COc1ccnc(C(=O)N[C@H](C(=O)OC(C)c2ccc(C3CCCCC3)cc2)C(C)C)c1OC(C)=O` (mixture of isomers) [Compound 79, N-[[3-(acetyloxy)-4-methoxy-2-pyridinyl]carbonyl]-L-valine 1-(4-cyclohexylphenyl)ethyl ester], the pest or weed control at 250 ppm was 100% in assay [1] (250 ppm); 0% in assay [2]; 100% in assay [3] (250 ppm); 11% in assay [4] (250 ppm); 0% in assay [5] (250 ppm); 0% in assay [6] (250 ppm). Besides, the pest or weed control at 250 ppm in assay [7] (250 ppm) came out at 100%.

`COc1ccnc(C(=O)N[C@@H](C)C(=O)OC(C)c2ccc(C3CCCCC3)cc2)c1OC(C)=O` (mixture of isomers) [Compound 31, N-[[3-(acetyloxy)-4-methoxy-2-pyridinyl]carbonyl]-L-alanine 1-(4-cyclohexylphenyl)ethyl ester]: the pest or weed control at 250 ppm in assay [1] (250 ppm) came out at 100%; in assay [2], 0%; in assay [3] (250 ppm), 87%; in assay [4] (250 ppm) it was 1%; in assay [5] (250 ppm) it was 0%; in assay [6] (250 ppm), 73%. The pest or weed control at 250 ppm in assay [7] (250 ppm) came to 100%.

In the case of `COc1ccnc(C(=O)NC(C)C(=O)OC(C)C2CCCCCC2)c1O` (mixture of isomers) [Compound 102], in assay [1] (50 ppm), the “Test B disease control rating” value was 55%. For the same compound, in assay [2] (50 ppm), the “Test F disease control rating” value was 0%. In assay [3] (50 ppm), the “Test C disease control rating” value was determined as 0%. Further, in assay [4] (50 ppm), the “Test D disease control rating” value stood at 72%. Moreover, in assay [5] (50 ppm), the “Test E disease control rating” value is reported as 0%. In assay [6] (50 ppm), the “Test G disease control rating” value stood at 0%. The “Test A disease control rating” value in assay [7] (50 ppm) is reported as 100%.

As to `CCC(OC(=O)[C@H](C)NC(=O)c1nccc(OC)c1OCOC(C)=O)c1ccc(C2CCCCC2)cc1` (single isomer, unassigned) [Compound 135], in assay [1] (250 ppm), the “Test B disease control rating” value is on record as 98%. The “Test F disease control rating” value in assay [2] (250 ppm) worked out at 0%. Also, the “Test C disease control rating” value in assay [3] (250 ppm) stood at 81%. The “Test D disease control rating” value in assay [4] (250 ppm) came to 29%. Further, the “Test E disease control rating” value in assay [5] (250 ppm) came out at 0%. Further, in assay [6] (250 ppm), the “Test G disease control rating” value came out at 86%. Further, the “Test A disease control rating” value in assay [7] (250 ppm) is 100%.

On to `CCC(OC(=O)[C@H](C)NC(=O)c1nccc(OC)c1OCOC(=O)C(C)C)C1CCCCC1` (single isomer, unassigned) [Compound 170], for which the “Test B disease control rating” value in assay [1] (250 ppm) is on record as 100%. The “Test F disease control rating” value in assay [2] (250 ppm) was 0%. Also, in assay [3] (250 ppm), the “Test C disease control rating” value was 100%. For the same compound, the “Test D disease control rating” value in assay [4] (250 ppm) turned out to be 32%. In assay [5] (250 ppm), the “Test E disease control rating” value is listed as 0%. Further, the “Test G disease control rating” value in assay [6] (250 ppm) is on record as 0%. The “Test A disease control rating” value in assay [7] (250 ppm) was found to be 100%.

Take `COc1cccc(C(=O)N[C@@H](C)C(=O)OC(C)c2ccccc2Cc2ccccc2)c1OC(C)=O` (single isomer, unassigned) [Compound 7]: in assay [1] (250 ppm), the “Test B disease control rating” value amounted to 0%. Moreover, the “Test F disease control rating” value in assay [2] (250 ppm) is recorded as 0%. In addition, the “Test C disease control rating” value in assay [3] (250 ppm) is listed as 0%. Besides, in assay [4] (250 ppm), the “Test D disease control rating” value came out at 35%. In addition, in assay [5] (250 ppm), the “Test E disease control rating” value came to 0%. Moreover, the “Test G disease control rating” value in assay [6] (250 ppm) turned out to be 0%. In addition, in assay [7] (250 ppm), the “Test A disease control rating” value turned out to be 0%.

Consider `COc1ccnc(C(=O)NC(C)C(=O)OC(C)C2Cc3ccccc3O2)c1OC(C)=O` (mixture of isomers) [Compound 186], for which the “Test B disease control rating” value in assay [1] (250 ppm) amounted to 100%. For the same compound, the “Test F disease control rating” value in assay [2] (250 ppm) came out at 0%. Moreover, the “Test C disease control rating” value in assay [3] (250 ppm) came to 83%. The “Test D disease control rating” value in assay [4] (250 ppm) worked out at 14%. In addition, in assay [5] (250 ppm), the “Test E disease control rating” value is 0%. The “Test G disease control rating” value in assay [6] (250 ppm) stood at 0%. For the same compound, the “Test A disease control rating” value in assay [7] (250 ppm) is listed as 94%.

`COc1ccnc(C(=O)N[C@@H](C)C(=O)OC(C)c2ccc(C3CCCCC3)cc2)c1OCOC(C)=O` (single isomer, unassigned) [Compound 147]: the “Test B disease control rating” value in assay [1] (250 ppm) stood at 99%. In addition, the “Test F disease control rating” value in assay [2] (250 ppm) is reported as 71%. In addition, in assay [3] (250 ppm), the “Test C disease control rating” value is 95%. Further, the “Test D disease control rating” value in assay [4] (250 ppm) was 38%. In addition, the “Test E disease control rating” value in assay [5] (250 ppm) was determined as 0%. Also, the “Test G disease control rating” value in assay [6] (250 ppm) is 94%. Moreover, the “Test A disease control rating” value in assay [7] (250 ppm) is given as 100%.

With `COc1ccnc(C(=O)N[C@@H](C)C(=O)OC(C)c2ccccc2Oc2ccc(F)cc2)c1OC(C)=O` (single isomer, unassigned) [Compound 57], the “Test B disease control rating” value in assay [1] (250 ppm) amounted to 98%. Further, the “Test F disease control rating” value in assay [2] (250 ppm) is reported as 0%. Also, the “Test C disease control rating” value in assay [3] (250 ppm) is 88%. For the same compound, the “Test D disease control rating” value in assay [4] (250 ppm) is on record as 16%. Besides, the “Test E disease control rating” value in assay [5] (250 ppm) amounted to 0%. In addition, in assay [6] (250 ppm), the “Test G disease control rating” value was 0%. The “Test A disease control rating” value in assay [7] (250 ppm) came to 99%.

On to `COc1ccnc(C(=O)N[C@@H](C)C(=O)OC(C)c2ccc(C3CCCCC3)cc2)c1OC(C)=O` (single isomer, unassigned) [Compound 86], for which the “Test F disease control rating” value in assay [2] (250 ppm) is 0%. Further, the “Test C disease control rating” value in assay [3] (250 ppm) was determined as 65%. Moreover, the “Test D disease control rating” value in assay [4] (250 ppm) turned out to be 24%. The “Test E disease control rating” value in assay [5] (250 ppm) is recorded as 0%. Further, the “Test G disease control rating” value in assay [6] (250 ppm) is on record as 0%. Further, the “Test A disease control rating” value in assay [7] (250 ppm) was 73%.

On to `COc1ccnc(C(=O)N[C@@H](C)C(=O)OC(C)C2CCCCC2)c1OC(C)=O` (single isomer, unassigned) [Compound 88], for which the “Test F disease control rating” value in assay [2] (250 ppm) was found to be 0%. Moreover, in assay [3] (250 ppm), the “Test C disease control rating” value worked out at 58%. Moreover, in assay [4] (250 ppm), the “Test D disease control rating” value came to 43%. For the same compound, the “Test E disease control rating” value in assay [5] (250 ppm) worked out at 0%. Further, in assay [6] (250 ppm), the “Test G disease control rating” value worked out at 0%. Besides, in assay [7] (250 ppm), the “Test A disease control rating” value stood at 99%.

Take `COc1ccnc(C(=O)N[C@@H](C)C(=O)O[C@@H](C)C2CCCCC2)c1OC(C)=O` [Compound 87, N-[[3-(acetyloxy)-4-methoxy-2-pyridinyl]carbonyl]-L-alanine (1S)-1-cyclohexylethyl ester]: the pest or weed control at 250 ppm in assay [2] came out at 47%; in assay [3] (250 ppm), 95%; in assay [4] (250 ppm), 21%; in assay [5] (250 ppm) it was 0%; in assay [6] (250 ppm) it was 0%; in assay [7] (250 ppm), 100%.

Consider `COc1ccnc(C(=O)NC(C)C(=O)OC(C)C2CCC(C(F)(F)F)CC2)c1O` (mixture of isomers) [Compound 179], for which the “Test B disease control rating” value in assay [1] (250 ppm) is reported as 100%. The “Test F disease control rating” value in assay [2] (250 ppm) came to 0%. Further, the “Test C disease control rating” value in assay [3] (250 ppm) is 99%. Also, in assay [4] (250 ppm), the “Test D disease control rating” value is on record as 82%. Besides, the “Test E disease control rating” value in assay [5] (250 ppm) is on record as 0%. Further, the “Test A disease control rating” value in assay [7] (250 ppm) was found to be 100%.

(Values after patent publication US20230131966A1, “FUNGICIDAL AMIDES” (FMC Corporation, priority 2020, published 2023).)
